≈ marks a conversion by molar mass, not a printed value. Square brackets hold non-standard residues; d marks the D form. Ends that are not written are not given here. Peptide text beside a SMILES is read from it. Orn = NCCC[C@H](N)C(=O)O
How the values were obtained:
[1] = tested on: Candida duobushaemulonii AR 392; assay: MIC, YPD broth, CDC and FDA AR Candida isolate panel; type: cell-based; settings: Table 9 below the line: only 200 or 100 μg/mL tested; values reported as 100 are ≤100 μg/mL
In short: (§1)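 Two-fold dilutions of each peptide (95% purity) were mixed with yeast suspended in broth of 10 g/L yeast extract, 20 g/L peptone and 20 g/L dextrose at an optical density of […]. Incubation was static, overnight, 37° C.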

[2] = tested on: Candida duobushaemulonii AR 391; assay: as above; type: cell-based; settings: Table 9 below the line: only 200 or 100 μg/mL tested; values reported as 100 are ≤100 μg/mL
In short: as §1

[3] = tested on: Candida lusitaniae AR 398; assay: as above; type: cell-based; settings: Table 9 below the line: only 200 or 100 μg/mL tested; values reported as 100 are ≤100 μg/mL
In short: as §1

[4] = tested on: Candida haemulonii AR 395; assay: as above; type: cell-based; settings: Table 9 below the line: only 200 or 100 μg/mL tested; values reported as 100 are ≤100 μg/mL
In short: as §1

[5] = tested on: Candida duobushaemulonii AR 394; assay: as above; type: cell-based; settings: Table 9 below the line: only 200 or 100 μg/mL tested; values reported as 100 are ≤100 μg/mL
In short: as §1

Candida krusei AR 397 = assay: as above; type: cell-based; settings: Table 9 below the line: only 200 or 100 μg/mL tested; values reported as 100 are ≤100 μg/mL
In short: as §1

[6] = tested on: Candida haemulonii AR 393; assay: as above; type: cell-based; settings: Table 9 below the line: only 200 or 100 μg/mL tested; values reported as 100 are ≤100 μg/mL
In short: as §1

[7] = tested on: Saccharomyces cerevisiae AR 400; assay: as above; type: cell-based; settings: Table 9 below the line: only 200 or 100 μg/mL tested; values reported as 100 are ≤100 μg/mL
In short: as §1

Kodamae ohmeri AR 396 = assay: as above; type: cell-based; settings: Table 9 below the line: only 200 or 100 μg/mL tested; values reported as 100 are ≤100 μg/mL
In short: as §1

[8] = tested on: Saccharomyces cerevisiae AR 399; assay: as above; type: cell-based; settings: Table 9 below the line: only 200 or 100 μg/mL tested; values reported as 100 are ≤100 μg/mL
In short: as §1

[9] = tested on: Mannheimia haemolytica ATCC 33393; assay: MIC, broth dilution; type: cell-based; settings: Table 11; highest concentration 25 μg/mL
In short: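 Read-out is the lowest peptide concentration showing no growth after an overnight standing culture at 37 °C. Two-fold serial dilutions of 95%-pure peptide were tested against M. haemolytica ATCC 33393 at OD 6×10^−4 in cation-adjusted MH broth.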

C. albicans MYA-2876 = assay: MIC, YPD broth; type: cell-based, Candida albicans; settings: Table 8
In short: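 Yeast cells were diluted in YPD broth, and 180 μl aliquots were mixed with 20 μl of peptide from 2-fold serial dilutions in flat-bottom 96-well microtitre plates. Wells receiving 20 μl sterile water served as controls. After standing incubation overnight at 37° C, the MIC was taken as the lowest peptide concentration with no visible microbial growth.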

[10] = tested on: S. aureus ATCC BAA-42 (MRSA SCCmec type VI); assay: MIC, broth dilution; type: cell-based, Staphylococcus aureus; settings: Table 5; STIP3 variants, highest concentration 100 μg/mL
In short: (§2)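 MIC defined as the lowest peptide level giving no growth after overnight standing incubation at 37° C. Bacteria at OD 6×10^−4 in cation-adjusted MH broth met 2-fold serial peptide dilutions; peptide purity 95%.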

[11] = tested on: S. aureus ATCC BAA-2313 (MRSA SCCmec type XI); assay: MIC, broth dilution; type: cell-based, Staphylococcus aureus; settings: Table 5; STIP3 variants, highest concentration 100 μg/mL
In short: as §2

[12] = tested on: S. aureus ATCC BAA-1683 (MRSA SCCmec type IV); assay: MIC, broth dilution; type: cell-based, Staphylococcus aureus; settings: Table 5; STIP3 variants, highest concentration 100 μg/mL
In short: as §2

[13] = tested on: S. aureus ATCC BAA-41 (MRSA SCCmec type II); assay: MIC, broth dilution; type: cell-based, Staphylococcus aureus; settings: Table 5; STIP3 variants, highest concentration 100 μg/mL
In short: as §2

S. aureus ATCC 29213 = assay: MIC, broth dilution; type: cell-based, Staphylococcus aureus; settings: Table 5; STIP3 variants, highest concentration 100 μg/mL
In short: as §2

[14] = tested on: S. aureus ATCC BAA-2094 (MRSA SCCmec type V); assay: MIC, broth dilution; type: cell-based, Staphylococcus aureus; settings: Table 5; STIP3 variants, highest concentration 100 μg/mL
In short: as §2

[15] = tested on: S. aureus ATCC 33592 (MRSA SCCmec type III); assay: MIC, broth dilution; type: cell-based, Staphylococcus aureus; settings: Table 5; STIP3 variants, highest concentration 100 μg/mL
In short: as §2

[16] = tested on: S. aureus ATCC BAA-44 (MRSA SCCmec type I); assay: MIC, broth dilution; type: cell-based, Staphylococcus aureus; settings: Table 5; STIP3 variants, highest concentration 100 μg/mL
In short: as §2

Compound | MIC (μg/mL) Candida duobushaemulonii AR 392 [1] | MIC (μg/mL) Candida duobushaemulonii AR 391 [2] | MIC (μg/mL) Candida lusitaniae AR 398 [3] [µg/mL] | MIC (μg/mL) Candida haemulonii AR 395 [4] | MIC (μg/mL) Candida duobushaemulonii AR 394 [5] | MIC (μg/mL) Candida krusei AR 397 (Candida krusei AR 397) [µg/mL] | MIC (μg/mL) Candida haemulonii AR 393 [6] | MIC (μg/mL) Saccharomyces cerevisiae AR 400 [7] [µg/mL] | MIC (μg/mL) Kodamae ohmeri AR 396 (Kodamae ohmeri AR 396) | MIC (μg/mL) Saccharomyces cerevisiae AR 399 [8] [µg/mL] | MIC (μg/mL) M. haemolytica [9] | MIC C. albicans MYA-2876 (C. albicans MYA-2876) | MIC S. aureus ATCC BAA 42 (VI) [10] [µg/mL] | MIC S. aureus ATCC BAA 2313 (XI) [11] [µg/mL] | MIC S. aureus ATCC BAA 1683 (IV) [12] [µg/mL] | MIC S. aureus ATCC BAA 41 (II) [13] [µg/mL] | MIC S. aureus ATCC 29213 (S. aureus ATCC 29213) [µg/mL] | MIC S. aureus ATCC BAA 2094 (V) [14] [µg/mL] | MIC S. aureus ATCC 33592 (III) [15] [µg/mL] | MIC S. aureus ATCC BAA 44 (I) [16] [µg/mL]
CC[C@H](C)[C@H](NC(=O)[C@H](Cc1c[nH]c2ccccc12)NC(=O)[C@H](CCCN)NC(=O)[C@@H](NC(=O)[C@H](CC(C)C)NC(=O)[C@H](C)NC(=O)[C@H](CCCN)NC(=O)[C@@H](NC(=O)[C@@H](N)[C@@H](C)O)C(C)C)C(C)C)C(=O)N[C@@H](CC(C)C)C(=O)N[C@@H](CCCN)C(=O)N[C@H](C(=O)N[C@H](C(=O)N[C@@H](C)C(=O)N[C@@H](CCCN)C(=O)N[C@@H](Cc1ccccc1)C(=O)N[C@@H](C)C(=O)O)C(C)C)[C@@H](C)O [STIP3-22, TVXALVXWILXTVAXFA] (H-TV[Orn]ALV[Orn]WIL[Orn]TVA[Orn]FA-OH; N-terminus and C-terminus assumed) | > (values below the line were determined using two concentrations of peptide 200 or 100 μg/mL) | > (values below the line were determined using two concentrations of peptide 200 or 100 μg/mL) | ≤ 100 | > (values below the line were determined using two concentrations of peptide 200 or 100 μg/mL) | > (values below the line were determined using two concentrations of peptide 200 or 100 μg/mL) | ≤ 100 | > (values below the line were determined using two concentrations of peptide 200 or 100 μg/mL) | ≤ 100 | > (values below the line were determined using two concentrations of peptide 200 or 100 μg/mL) | ≤ 100 | 6.25 µg/mL (≈ 3.36 µM) | > (> symbol indicates that no inhibition was observed at the highest concentration of peptide tested: 100 μg/mL) | 25 (≈ 13.4 µM) | 100 (≈ 53.8 µM) | 25 (≈ 13.4 µM) | 25 (≈ 13.4 µM) | 25 (≈ 13.4 µM) | 25 (≈ 13.4 µM) | 25 (≈ 13.4 µM) | 25 (≈ 13.4 µM)
TVGGLVKWILDTFKKFA [STIP3-11, TVGGLVKWILDTFKKFA] | > (values below the line were determined using two concentrations of peptide 200 or 100 μg/mL) | > (values below the line were determined using two concentrations of peptide 200 or 100 μg/mL) | ≤ 100 | > (values below the line were determined using two concentrations of peptide 200 or 100 μg/mL) | > (values below the line were determined using two concentrations of peptide 200 or 100 μg/mL) | ≤ 100 | > (values below the line were determined using two concentrations of peptide 200 or 100 μg/mL) | ≤ 100 | > (values below the line were determined using two concentrations of peptide 200 or 100 μg/mL) | ≤ 100 | > (> symbol indicates that no inhibition was observed at the highest concentration of peptide tested: 25 μg/mL) | 25 µg/mL | 50 | 100 | 50 | 50 | 50 | 100 | 50 | 100
TVGGLVKWILDVVKKFA [STIP3-9, TVGGLVKWILDVVKKFA] | > (values below the line were determined using two concentrations of peptide 200 or 100 μg/mL) | > (values below the line were determined using two concentrations of peptide 200 or 100 μg/mL) | ≤ 100 | > (values below the line were determined using two concentrations of peptide 200 or 100 μg/mL) | > (values below the line were determined using two concentrations of peptide 200 or 100 μg/mL) | ≤ 100 | > (values below the line were determined using two concentrations of peptide 200 or 100 μg/mL) | ≤ 100 | > (values below the line were determined using two concentrations of peptide 200 or 100 μg/mL) | ≤ 100 | 25 µg/mL | 50 µg/mL | 25 | 25 | 25 | 35 | 25 | 25 | 25 | 25
TVGGLVKWILNTVKKFA [STIP3-4, TVGGLVKWILNTVKKFA] | > (values below the line were determined using two concentrations of peptide 200 or 100 μg/mL) | > (values below the line were determined using two concentrations of peptide 200 or 100 μg/mL) | ≤ 100 | > (values below the line were determined using two concentrations of peptide 200 or 100 μg/mL) | > (values below the line were determined using two concentrations of peptide 200 or 100 μg/mL) | ≤ 100 | > (values below the line were determined using two concentrations of peptide 200 or 100 μg/mL) | ≤ 100 | > (values below the line were determined using two concentrations of peptide 200 or 100 μg/mL) | ≤ 100 | 25 µg/mL | 12.5 µg/mL | 50 | 100 | 100 | 50 | 100 | 50 | 50 | 50

Source: US12370235B2, “Synthetic, non-natural antimicrobial peptides inspired by Staphylococcus auricularis delta toxin” (University of Saskatchewan, priority 2021, dated 2025)
